Results as given in PubChem BioAssay (NCI).
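Where inhibition never reached the appropriate level, the endpoint shown equals the highest concentration tested. Otherwise, values were interpolated linearly from a five-concentration, 48-hour dose response in 96-well plates. The concentration for 50% growth inhibition is given as GI50. The concentration for full growth arrest is given as TGI.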

What was measured:
Assay in all cases: NCI-60 cell line screen, 48 h
[1] = tested on: A498 renal
[2] = tested on: HOP-62 NSCLC
[3] = tested on: SF-268 CNS
[4] = tested on: OVCAR-5 ovarian
[5] = tested on: SN12C renal
[6] = tested on: NCI/ADR-RES ovarian
[7] = tested on: HS 578T breast
[8] = tested on: MOLT-4 leukemia
[9] = tested on: MCF7 breast
[10] = tested on: RXF 393 renal

Compound | TGI [1] [µM] | TGI [2] [µM] | TGI [3] [µM] | TGI [4] [µM] | TGI [5] [µM] | TGI [6] [µM] | TGI [7] [µM] | TGI [8] [µM] | TGI [9] [µM] | TGI [10] [µM] | GI50 [3] [µM] | GI50 [4] [µM] | GI50 [5] [µM] | GI50 [6] [µM] | GI50 [7] [µM] | GI50 [8] [µM] | GI50 [9] [µM] | GI50 [10] [µM] | GI50 [1] [µM] | GI50 [2] [µM]
COc1c2c(c3c(c1CCC(=O)O)OC(C)(C)C=C3)OC(C)(C)C=C2 | > 100 | > 100 | > 100 | > 100 | > 100 | > 100 | > 100 | > 100 | > 100 | > 100 | – | – | – | – | – | – | – | – | – | –
O=C(Cn1ccc(=O)[nH]c1=O)Nc1ccc(C(=O)O)c(O)c1 | > 100 | > 100 | > 100 | > 100 | > 100 | > 100 | > 100 | > 100 | > 100 | > 100 | – | – | – | – | – | – | – | – | – | –
Cc1ccc(/C=C2\CN(C(=O)OC(C)(C)C)C/C(=C\c3ccc(C)cc3)C2=O)cc1 | > 100 | > 100 | > 100 | > 100 | > 100 | > 100 | 3.45 | > 41.9 | > 100 | 4.36 | 0.34 | 0.391 | 0.393 | 0.281 | 0.0562 | 0.805 | 0.205 | 0.0625 | – | –
CCN(CC)CCn1ccc(=O)c2cc3c(=O)ccn(CCN(CC)CC)c3c(C)c21 | 29.2 | 19.7 | 17.2 | 29.9 | 21.3 | 5.2 | 17.5 | > 100 | > 100 | 14.1 | – | – | – | – | – | – | – | – | – | –
C[C@@H](C(=O)Nc1ccc(Cl)cc1)C1CCC(c2ccnc3ccc(F)cc23)CC1 (some centres not stated) | 56.8 | > 100 | 60.9 | > 100 | 44.4 | 48 | 68.5 | > 100 | 97.5 | 26.7 | 8.55 | 17.8 | 8.23 | 10.1 | 9.3 | 4.16 | 4.4 | 3.6 | 6.27 | 19.4
Cc1[c-]onc1C.Cc1[c-]onc1C.[Ag].[Ag].[NH-]S(=O)(=O)c1ccc(N=Nc2cc(N=Nc3ccc(S([NH-])(=O)=O)cc3)c3c(NC(=O)C(Cl)Cl)cccc3c2OC(=O)C(Cl)Cl)cc1 | 44.6 | 38.9 | 28.1 | 19 | > 50 | > 50 | > 50 | 28.1 | > 50 | 15.6 | 8.78 | 9.92 | 14.9 | 21 | 5.81 | 8.18 | 2.12 | 6.47 | 13 | 16.8
Nc1ccn(Cc2ccc(C34CC5CC(CC(C5)C3)C4)c(O)c2)c(=O)n1 | > 100 | 76.4 | > 100 | > 100 | > 100 | > 100 | > 100 | > 100 | > 100 | – | 67.1 | > 100 | > 100 | > 100 | 14.4 | 54.4 | 91.5 | – | 59.4 | 22.5
Cc1ccc2c(ccc3c[n+]4c5ccccc5ccc4n32)c1 | 5.78 | 12.6 | 2.13 | 45.1 | 2.5 | > 100 | 4.71 | 9.65 | 8.49 | 8.81 | 0.39 | 4.42 | 0.297 | > 100 | 0.959 | 1.65 | 2.07 | 2.52 | 0.437 | 1.28
COc1cc(Cl)cc(-c2nn(C(=O)NCCN3CCOCC3)cc2-c2ccncc2)c1 | 35.2 | 63.6 | > 100 | > 100 | > 100 | > 100 | 41 | > 100 | > 100 | 19.9 | 6.69 | 37.8 | 10 | 2.87 | 6.38 | 3.78 | 3.54 | 2.67 | 3.1 | 6.03
CC(C)(C)C#CC1=C(Br)C(=O)OC1 | 15.1 | 1.48 | 33.3 | 0.608 | 17.7 | 2.8 | > 78.2 | 5.03 | 25.9 | 6.8 | 12.7 | – | 6.26 | 0.426 | > 26.9 | 1.26 | 3.99 | 2.44 | 4.04 | 0.454
CNC(=O)c1cncc(/C=C/c2ccccc2C)c1 | > 25 | > 25 | > 25 | > 25 | > 25 | > 25 | > 25 | > 25 | > 25 | > 25 | > 25 | > 25 | > 25 | > 25 | > 25 | > 25 | > 25 | > 25 | 17.4 | > 25
O=CNc1c(Cl)cc2c(c1Cl)Cc1cc([N+](=O)[O-])ccc1-2 | 48.4 | > 67.5 | > 100 | > 100 | > 100 | 38.3 | 14.4 | > 100 | > 100 | 46.4 | 6.63 | 16.6 | 14.4 | 4.49 | 1.77 | 2.13 | 0.34 | 10.8 | 4.07 | 5.76
C=CCc1c2c(c(OC)c3ccoc13)C(=O)/C(=C/c1ccccc1OC)O2 | 79.2 | 46.3 | 60.4 | > 100 | > 100 | 10.8 | > 100 | > 100 | > 100 | 6.92 | 3.73 | 3.57 | 4.85 | 2.82 | 5.29 | 3.52 | 2.92 | 2.47 | 5.81 | 4.98
COc1c(CCC[P+](c2ccccc2)(c2ccccc2)c2ccccc2)cc2c(c1OC)OCO2 | 3.3 | 14.5 | 13.1 | 81.2 | 10.4 | > 100 | 13.4 | 16.3 | 10.7 | 11.6 | 2.04 | 2.74 | 2.42 | > 100 | 1.72 | 3.12 | 1.12 | 2.05 | 0.0261 | 3.42
CCCCOc1ccc(NC(N)=Nc2ccc(Cl)cc2)cc1 | 14.5 | 2.86 | 12.9 | 19.9 | 15.9 | 18.9 | 21 | > 42 | 4.2 | 25.5 | – | – | – | – | – | – | – | – | – | –
C[C@H](Nc1ncnc2nc[nH]c12)c1cc2cccc(Cl)c2c(=O)n1-c1ccccc1 | 0.446 | > 100 | > 100 | > 100 | > 100 | > 100 | 14.5 | 51.1 | > 100 | 9.41 | 22.6 | 21.4 | 3.11 | > 100 | 0.631 | 6.53 | 3.16 | 0.273 | 0.0491 | 30.3
ClCCn1c(CCl)nc2ccc(Cl)cc21 | 4.8 | 3.3 | 2.95 | 2.77 | 0.708 | 4.36 | 7.03 | 0.81 | 2.01 | 1.34 | 1.22 | 1.21 | 0.257 | 1.21 | 2.06 | 0.305 | 0.372 | 0.379 | 2.05 | 1.58
COC(=O)[C@]12CC[C@@H](C)[C@H](C)[C@@H]1C1=CC[C@@H]3[C@@]4(C)C[C@@H](OC(C)=O)[C@H](O)[C@@](C)(COC(C)=O)[C@@H]4[C@H](O)C[C@@]3(C)[C@]1(C)CC2 | 7.4 | 4.1 | 13.6 | 7.61 | – | 7.54 | 12.6 | 4.24 | 5.71 | 5.05 | 3.11 | 2.23 | – | 2.68 | 2.95 | 1.66 | 2.01 | 2.13 | 2.04 | 1.89
COc1cccc(/C=C/C(=O)c2cccc(Nc3nc(Nc4ccccc4)nc(Nc4ccccc4)n3)c2)c1 | 17.7 | > 78.1 | > 89.9 | > 86.3 | > 100 | > 100 | 61.7 | 26.3 | 6.91 | 35.6 | 20.9 | 26.8 | 48.5 | 27.3 | 15.8 | 3.86 | 1.37 | 10.7 | 6.04 | > 46.9
O=C(c1ccccc1)C1N=NCC1c1ccc([N+](=O)[O-])cc1 (configuration not stated) | > 100 | > 100 | > 100 | > 100 | > 100 | > 100 | > 100 | 72.9 | 56.9 | – | – | – | – | – | – | – | – | – | – | –
